Like-named read-outs stand apart in the source and are kept apart here.
Tests used:
[1] = amide bond, 13-membered ring, CDMT/NMM, DMF
[2] = biological target: T1, CFTR (F508del/MF-HBE cells) (Homo sapiens, UniProt P13569, DEL508-508); experiment: Ussing chamber assay of CFTR-mediated short-circuit currents, Assay A (0.1 μM to 25 μM, 6 concentrations); type: cell-based; conditions: with 33 nM potentiator and 18 μM Tezacaftor, 20% human serum; for Emax: 18-24 hours, read-out: A Max activity (%)
T1 construct: human bronchial epithelial (HBE) cells derived from CF subjects heterozygous for F508del and a minimal function CFTR mutation (F508del/MF-HBE); endogenous in cells; host or cells: Primary human bronchial epithelial cells from CF subjects (F508del/MF genotype), differentiated at an air-liquid interface
Procedure, shortened: (§1)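 F508del/MF-HBE cells grown at air-liquid interface were incubated 18-24 h at 37 °C in 20% human serum with correctors plus 18 μM tezacaftor and a fixed partner compound (33 nM for concentration series, 44 nM at 1 μM). ISC was read at 0 mV after 20 μM forskolin, minus the post-inhibitor current.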

[3] = biological target: T1, CFTR (F508del/MF-HBE cells); experiment: Ussing chamber assay of CFTR-mediated short-circuit currents, Assay B (0.00001 μM to 25 μM, 12 concentrations); type: cell-based; conditions: with 33 nM potentiator and 18 μM Tezacaftor, 20% human serum; for Emax: 18-24 hours, read-out: B Max activity (%)
Method: Ussing chamber experiments were performed using human bronchial epithelial (HBE) cells derived from CF subjects heterozygous for F508del and a minimal function CFTR mutation (F508del/MF-HBE) and cultured as previously described (Neuberger T, Burton B, Clark H, Van Goor F Methods Mol Biol 2011:741:39-54). After four days the apical media was removed, and the cells were grown at an air liquid interface for >14 days prior to use.
To isolate the CFTR-mediated short-circuit (ISC) current, F508del/MF-HBE grown on Costar® Snapwell™ cell culture inserts were mounted in an Ussing chamber and the transepithelial ISC was measured under voltage-clamp recording conditions (Vhold=0 mV) at 37° C. The basolateral solution contained (in mM) 145 NaCl, 0.83 K2HPO4, 3.3 KH2PO4, 1.2 MgCl2, 1.2 CaCl2, 10 Glucose, 10 HEPES (pH adjusted to 7.4 with NaOH) and the apical solution contained (in mM) 145 NaGluconate, 1.2 MgCl2, 1.2 CaCl2, 10 glucose, 10 HEPES (pH adjusted to 7.4 with NaOH) and 30 μM amiloride to block the epithelial sodium channel. Forskolin (20 μM) was added to the apical surface to activate CFTR, followed by apical addition of a CFTR inhibitor cocktail consisting of BPO, GlyH-101, and CFTR inhibitor 172 (each at 20 μM final assay concentration) to specifically isolate CFTR currents. The CFTR-mediated ISC (μA/cm^2) for each condition was determined from the peak forskolin response to the steady-state current following inhibition.
The activity of the CFTR corrector compounds on the CFTR-mediated ISC was determined in Ussing chamber studies as described above. The F508del/MF-HBE cell cultures were either incubated with the corrector compounds at a range of concentrations in combination with 33 nM (6R,12R)-17-amino-12-methyl-6,15-bis(trifluoromethyl)-13,19-dioxa-3,4,18-triazatricyclo[12.3.1.12,5]nonadeca-1(18),2,4,14,16-pentaen-6-ol and 18 μM Tezacaftor or were incubated with the corrector compounds at a single fixed concentration of 1 μM in combination with 44 nM (6R,12R)-17-amino-12-methyl-6,15-bis(trifluoromethyl)-13,19-dioxa-3,4,18-triazatricyclo[12.3.1.12,5]nonadeca-1(18),2,4,14,16-pentaen-6-ol and 18 μM Tezacaftor for 18-24 hours at 37° C. and in the presence of 20% human serum. The concentration of corrector compounds with 44 nM or 33 nM (6R,12R)-17-amino-12-methyl-6,15-bis(trifluoromethyl)-13,19-dioxa-3,4,18-triazatricyclo[12.3.1.12,5]nonadeca-1(18),2,4,14,16-pentaen-6-ol and 18 μM Tezacaftor during the 18-24 hours incubations was kept constant throughout the Ussing chamber measurement of the CFTR-mediated ISC to ensure compounds were present throughout the entire experiment. The efficacy and potency of the putative F508del correctors was compared to that of the known Vertex corrector, (14S)-8-[3-(2-{Dispiro[2.0.2.1]heptan-7-yl}ethoxy)-1H-pyrazol-1-yl]-12,12-dimethyl-2λ^6-thia-3,9,11,18,23-pentaazatetracyclo[17.3.1.111,14.05,10]tetracosa-1(22),5,7,9,19(23),20-hexaene-2,2,4-trione, in combination with 18 μM Tezacaftor and 1 μM Ivacaftor.
• Assay A: 0.1 μM to 25 μM, 6 concentrations • Assay B: 0.00001 μM to 25 μM, 12 concentrations • Assay C: 0.026 μM to 25 μM, 6 concentrations • Assay D: Activity at single concentration of 1 μM

[4] = biological target: T1, CFTR (F508del/MF-HBE cells); experiment: Ussing chamber assay of CFTR-mediated short-circuit currents, Assay D (single concentration of 1 μM); type: cell-based; conditions: with 44 nM potentiator and 18 μM Tezacaftor, 18-24 hours, 20% human serum
Procedure, shortened: as §1

[5] = biological target: T1, CFTR (F508del/MF-HBE cells); experiment: Ussing chamber assay of CFTR-mediated short-circuit currents, Assay C (0.026 μM to 25 μM, 6 concentrations); type: cell-based; conditions: with 33 nM potentiator and 18 μM Tezacaftor, 20% human serum
Procedure, shortened: as §1

T1 sequence (P13569 with tags, fused parts or gaps DEL508-508): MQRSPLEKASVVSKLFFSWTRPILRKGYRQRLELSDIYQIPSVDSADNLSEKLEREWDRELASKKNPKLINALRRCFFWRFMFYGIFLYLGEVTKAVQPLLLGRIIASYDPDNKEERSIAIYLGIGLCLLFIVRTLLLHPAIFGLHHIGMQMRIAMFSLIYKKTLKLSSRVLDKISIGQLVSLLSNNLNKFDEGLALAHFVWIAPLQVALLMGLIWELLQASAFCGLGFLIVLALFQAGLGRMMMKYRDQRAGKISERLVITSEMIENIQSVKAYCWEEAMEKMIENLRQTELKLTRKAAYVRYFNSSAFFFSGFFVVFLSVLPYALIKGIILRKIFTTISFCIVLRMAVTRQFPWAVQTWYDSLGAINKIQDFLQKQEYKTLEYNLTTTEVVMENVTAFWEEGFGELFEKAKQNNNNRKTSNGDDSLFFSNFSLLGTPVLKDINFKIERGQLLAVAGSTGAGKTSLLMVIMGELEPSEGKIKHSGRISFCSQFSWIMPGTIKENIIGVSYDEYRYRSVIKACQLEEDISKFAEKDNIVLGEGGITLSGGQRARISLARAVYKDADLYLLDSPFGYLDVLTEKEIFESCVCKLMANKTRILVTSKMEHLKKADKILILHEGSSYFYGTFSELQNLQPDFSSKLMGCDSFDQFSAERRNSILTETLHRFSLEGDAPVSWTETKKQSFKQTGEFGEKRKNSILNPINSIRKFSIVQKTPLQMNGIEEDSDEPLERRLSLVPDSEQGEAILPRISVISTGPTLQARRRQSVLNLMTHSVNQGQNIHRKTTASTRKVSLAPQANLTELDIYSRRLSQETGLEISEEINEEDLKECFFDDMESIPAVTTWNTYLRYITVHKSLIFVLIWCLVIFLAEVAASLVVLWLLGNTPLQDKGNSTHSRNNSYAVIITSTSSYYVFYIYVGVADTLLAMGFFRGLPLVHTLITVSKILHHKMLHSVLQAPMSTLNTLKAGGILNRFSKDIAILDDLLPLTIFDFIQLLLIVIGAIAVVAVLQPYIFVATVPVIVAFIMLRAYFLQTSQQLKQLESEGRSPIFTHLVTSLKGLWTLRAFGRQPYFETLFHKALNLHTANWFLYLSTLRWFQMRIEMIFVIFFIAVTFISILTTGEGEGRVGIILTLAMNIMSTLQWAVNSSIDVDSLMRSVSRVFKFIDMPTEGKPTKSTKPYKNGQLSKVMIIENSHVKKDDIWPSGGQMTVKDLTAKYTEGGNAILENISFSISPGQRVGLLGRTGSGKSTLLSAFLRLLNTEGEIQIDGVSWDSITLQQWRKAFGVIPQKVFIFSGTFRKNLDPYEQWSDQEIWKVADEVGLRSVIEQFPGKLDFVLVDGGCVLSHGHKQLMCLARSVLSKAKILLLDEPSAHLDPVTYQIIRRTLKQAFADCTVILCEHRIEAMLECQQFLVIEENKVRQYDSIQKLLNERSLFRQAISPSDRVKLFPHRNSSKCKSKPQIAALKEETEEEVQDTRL

Row | Emax [2] [%] | EC50 [2] [µM] | Emax [3] [%] | EC50 [3] [µM] | Structure (SMILES) | further results
1 | > 60 | < 1 | – | – | Cc1cccc(C)c1-c1cc2nc(n1)NS(=O)(=O)c1cccc(c1)C(=O)N(Cc1cnc3oc(C(C)C)cc3n1)[C@H](CCC1(C)CCC1)CO2 [Compound I-13, (11R)-6-(2,6-dimethylphenyl)-12-[(6-isopropylfuro[2,3-b]pyrazin-2-yl)methyl]-11-[2-(1-methylcyclobutyl)ethyl]-2,2-dioxo-9-oxa-2λ^6-thia-3,5,12,19-tetrazatricyclo[12.3.1.14,8]nonadeca-1(18),4(19),5,7,14,16-hexaen-13-one] | ring closure, yield after HPLC ([1]; from Cc1cccc(C)c1-c1cc(OC[C@@H](CCC2(C)CCC2)NCc2cnc3oc(C(C)C)cc3n2)nc(NS(=O)(=O)c2cccc(C(=O)O)c2)n1, 13.5 mM, 16.5 h): 37%
2 | > 60 | < 1 | – | – | Cc1cccc(C)c1-c1cc2nc(n1)NS(=O)(=O)c1cccc(c1)C(=O)N(Cc1cnc3oc(C)c(C4CC4)c3n1)[C@H](COC(C)C)CO2 [Compound I-26, (11R)-12-[(7-cyclopropyl-6-methyl-furo[2,3-b]pyrazin-2-yl)methyl]-6-(2,6-dimethylphenyl)-11-(isopropoxymethyl)-2,2-dioxo-9-oxa-2λ^6-thia-3,5,12,19-tetrazatricyclo[12.3.1.14,8]nonadeca-1(18),4(19),5,7,14,16-hexaen-13-one] | ring closure, yield after HPLC ([1]; from Cc1cccc(C)c1-c1cc(OC[C@@H](COC(C)C)NCc2cnc3oc(C)c(C4CC4)c3n2)nc(NS(=O)(=O)c2cccc(C(=O)O)c2)n1, 12.8 mM, 16.5 h): 61%
3 | > 60 | < 1 | – | – | Cc1cccc(C)c1-c1cc2nc(n1)NS(=O)(=O)c1cccc(c1)C(=O)N(Cc1cnc3oc(C(C)C)c(C)c3n1)[C@H](CC13CC(C1)C3)CO2 [Compound I-62, (11R)-11-(1-bicyclo[1.1.1]pentanylmethyl)-6-(2,6-dimethylphenyl)-12-[(6-isopropyl-7-methyl-furo[2,3-b]pyrazin-2-yl)methyl]-2,2-dioxo-9-oxa-2λ^6-thia-3,5,12,19-tetrazatricyclo[12.3.1.14,8]nonadeca-1(18),4(19),5,7,14,16-hexaen-13-one] | ring closure, yield after HPLC ([1]; from Cc1cccc(C)c1-c1cc(OC[C@@H](CC23CC(C2)C3)NCc2cnc3oc(C(C)C)c(C)c3n2)nc(NS(=O)(=O)c2cccc(C(=O)O)c2)n1, 39.5 mM, 14.0 h): 70%
4 | > 60 | < 1 | – | – | Cc1cccc(C)c1-c1cc2nc(n1)NS(=O)(=O)c1cccc(c1)C(=O)N(Cc1nc3c(cc1F)cc(C(C)C)n3C)[C@H](CC13CC(C1)C3)CO2 [Compound I-87, (11R)-11-(1-bicyclo[1.1.1]pentanylmethyl)-6-(2,6-dimethylphenyl)-12-[(5-fluoro-2-isopropyl-1-methyl-pyrrolo[2,3-b]pyridin-6-yl)methyl]-2,2-dioxo-9-oxa-2λ^6-thia-3,5,12,19-tetrazatricyclo[12.3.1.14,8]nonadeca-1(18),4(19),5,7,14,16-hexaen-13-one] | ring closure, yield after HPLC ([1]; from Cc1cccc(C)c1-c1cc(OC[C@@H](CC23CC(C2)C3)NCc2nc3c(cc2F)cc(C(C)C)n3C)nc(NS(=O)(=O)c2cccc(C(=O)O)c2)n1, 10.7 mM, 24.5 h): 39%
5 | – | – | > 60 | 3 to 30 | Cc1cccc(C)c1-c1cc2nc(n1)NS(=O)(=O)c1cccc(c1)C(=O)N(Cc1cnc3oc(C4CC4)cc3n1)[C@H](CC1(F)CCC1)CO2 [Compound I-123, (11R)-12-[(6-cyclopropylfuro[2,3-b]pyrazin-2-yl)methyl]-6-(2,6-dimethylphenyl)-11-[(1-fluorocyclobutyl)methyl]-2,2-dioxo-9-oxa-2λ^6-thia-3,5,12,19-tetrazatricyclo[12.3.1.14,8]nonadeca-1(18),4(19),5,7,14,16-hexaen-13-one] | ring closure, yield after HPLC ([1]; from Cc1cccc(C)c1-c1cc(OC[C@@H](CC2(F)CCC2)NCc2cnc3oc(C4CC4)cc3n2)nc(NS(=O)(=O)c2cccc(C(=O)O)c2)n1, 27.1 mM, 2.08 h): 53%
6 | – | – | > 60 | 3 to 30 | Cc1cccc(C)c1-c1cc2nc(n1)NS(=O)(=O)c1cccc(c1)C(=O)N(Cc1cnc3cn(C(C)C)nc3n1)[C@H](CC1(C)CC1)CO2 [Compound I-128, (11R)-6-(2,6-Dimethylphenyl)-12-[(2-isopropylpyrazolo[3,4-b]pyrazin-6-yl)methyl]-11-[(1-methylcyclopropyl)methyl]-2,2-dioxo-9-oxa-2λ^6-thia-3,5,12,19-tetrazatricyclo[12.3.1.14,8]nonadeca-1(18),4(19),5,7,14,16-hexaen-13-one] | ring closure, yield after HPLC ([1]; from Cc1cccc(C)c1-c1cc(OC[C@@H](CC2(C)CC2)NCc2cnc3cn(C(C)C)nc3n2)nc(NS(=O)(=O)c2cccc(C(=O)O)c2)n1, 12.0 mM, 22.5 h): 38%
7 | – | – | > 60 | < 1 | Cc1cccc(C)c1-c1cc2nc(n1)NS(=O)(=O)c1cccc(c1)C(=O)N(Cc1cnc3oc(C4CCC4)cc3n1)[C@H](CC13CC(C1)C3)CO2 [Compound I-134, (11R)-11-(1-Bicyclo[1.1.1]pentanylmethyl)-12-[(6-cyclobutylfuro[2,3-b]pyrazin-2-yl)methyl]-6-(2,6-dimethylphenyl)-2,2-dioxo-9-oxa-2λ^6-thia-3,5,12,19-tetrazatricyclo[12.3.1.14,8]nonadeca-1(18),4(19),5,7,14,16-hexaen-13-one] | ring closure, yield after HPLC ([1]; from Cc1cccc(C)c1-c1cc(OC[C@@H](CC23CC(C2)C3)NCc2cnc3oc(C4CCC4)cc3n2)nc(NS(=O)(=O)c2cccc(C(=O)O)c2)n1, 28.4 mM, 2.0 h): 91%
8 | – | – | > 60 | < 1 | Cc1cccc(C)c1-c1nc2nc(c1C)OC[C@@H](CC(C)(C)C)N(Cc1cnc3cc(C(C)(C)C)n(C)c3n1)C(=O)c1cccc(c1)S(=O)(=O)N2 [Compound I-188, (11R)-12-[(6-tert-Butyl-5-methyl-pyrrolo[2,3-b]pyrazin-3-yl)methyl]-6-(2,6-dimethylphenyl)-11-(2,2-dimethylpropyl)-7-methyl-2,2-dioxo-9-oxa-2λ^6-thia-3,5,12,19-tetrazatricyclo[12.3.1.14,8]nonadeca-1(18),4(19),5,7,14,16-hexaen-13-one] | ring closure, yield after HPLC ([1]; from Cc1cccc(C)c1-c1nc(NS(=O)(=O)c2cccc(C(=O)O)c2)nc(OC[C@@H](CC(C)(C)C)NCc2cnc3cc(C(C)(C)C)n(C)c3n2)c1C, 19.8 mM, 4.0 h): 57%; D activity at 1 μM (%) [4]: +++ (+++ is >60%); Emax ([5]; 18-24 hours, read-out: C Max activity (%)): > 60%; EC50 [5]: < 1 µM

— patent publication US20250340574A1, “MODULATORS OF CYSTIC FIBROSIS TRANSMEMBRANE CONDUCTANCE REGULATOR” (Vertex Pharmaceuticals Incorporated, priority 2022, published 2025)
